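1) Cells in 96-well plates. 2) Compound, 48 h, 5 concentrations. 3) Linear interpolation between surrounding doses. 4) Unreached endpoint = highest concentration. The concentration for 50% growth inhibition is given as GI50. TGI denotes the concentration required for complete inhibition of growth.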
Key:
Experiment in all cases: NCI-60 cell line screen, 48 h
786-0 renal = system: 786-0 renal
A498 renal = system: A498 renal
A549 NSCLC = system: A549 NSCLC
ACHN renal = system: ACHN renal
BT-549 breast = system: BT-549 breast
CAKI-1 renal = system: CAKI-1 renal
CCRF-CEM leukemia = system: CCRF-CEM leukemia
COLO 205 colon = system: COLO 205 colon
DU-145 prostate = system: DU-145 prostate
EKVX NSCLC = system: EKVX NSCLC
HCC-2998 colon = system: HCC-2998 colon
HCT-116 colon = system: HCT-116 colon
HCT-15 colon = system: HCT-15 colon
HL-60(TB) leukemia = system: HL-60(TB) leukemia
HOP-62 NSCLC = system: HOP-62 NSCLC
HOP-92 NSCLC = system: HOP-92 NSCLC
HS 578T breast = system: HS 578T breast
HT29 colon = system: HT29 colon
IGROV1 ovarian = system: IGROV1 ovarian
K-562 leukemia = system: K-562 leukemia
KM12 colon = system: KM12 colon
LOX IMVI melanoma = system: LOX IMVI melanoma
M14 melanoma = system: M14 melanoma
MALME-3M melanoma = system: MALME-3M melanoma
MDA-MB-231 breast = system: MDA-MB-231 breast
MDA-MB-435 = system: MDA-MB-435
MOLT-4 leukemia = system: MOLT-4 leukemia
NCI-H226 lung = system: NCI-H226 lung
NCI-H23 lung = system: NCI-H23 lung
NCI-H460 lung = system: NCI-H460 lung
NCI-H522 lung = system: NCI-H522 lung
NCI/ADR-RES ovarian = system: NCI/ADR-RES ovarian
OVCAR-3 ovarian = system: OVCAR-3 ovarian
OVCAR-4 ovarian = system: OVCAR-4 ovarian
OVCAR-5 ovarian = system: OVCAR-5 ovarian
OVCAR-8 ovarian = system: OVCAR-8 ovarian
PC-3 prostate = system: PC-3 prostate
RPMI-8226 leukemia = system: RPMI-8226 leukemia
RXF 393 renal = system: RXF 393 renal
SF-268 CNS = system: SF-268 CNS
SF-295 CNS = system: SF-295 CNS
SF-539 CNS = system: SF-539 CNS
SK-MEL-2 melanoma = system: SK-MEL-2 melanoma
SK-MEL-28 melanoma = system: SK-MEL-28 melanoma
SK-MEL-5 melanoma = system: SK-MEL-5 melanoma
SK-OV-3 ovarian = system: SK-OV-3 ovarian
SN12C renal = system: SN12C renal
SNB-19 CNS = system: SNB-19 CNS
SNB-75 CNS = system: SNB-75 CNS
SR leukemia = system: SR leukemia
SW-620 colon = system: SW-620 colon
TK-10 renal = system: TK-10 renal
U251 CNS = system: U251 CNS
UACC-257 melanoma = system: UACC-257 melanoma
UACC-62 melanoma = system: UACC-62 melanoma
UO-31 renal = system: UO-31 renal

Molecule `O=C1Nc2cc(-c3ccc(NS(=O)(=O)c4ccc(F)c(Cl)c4)cc3)ccc2/C1=C/c1ccc[nH]1` has a GI50 (786-0 renal) of 5.54 µM, a TGI (786-0 renal) of 27 µM and a GI50 (A498 renal) of 1.93 µM. For the same molecule, the TGI (A498 renal) was 15.5 µM, the GI50 (A549 NSCLC) was 2.35 µM and the TGI (A549 NSCLC) was 16.8 µM. The GI50 (ACHN renal) was 3.52 µM, the TGI (ACHN renal) was 14.6 µM and the GI50 (BT-549 breast) was 4 µM. For the same molecule, the TGI (BT-549 breast) was 26.3 µM, the GI50 (CAKI-1 renal) was 4.63 µM and the TGI (CAKI-1 renal) was 18.6 µM. The GI50 (CCRF-CEM leukemia) was 3.28 µM, the TGI (CCRF-CEM leukemia) was 18.9 µM and the GI50 (COLO 205 colon) was 5.07 µM. For the same molecule, the TGI (COLO 205 colon) was 18.9 µM, the GI50 (DU-145 prostate) was 3.74 µM and the TGI (DU-145 prostate) was 15.2 µM. The GI50 (EKVX NSCLC) was 0.0918 µM, the TGI (EKVX NSCLC) was 15.9 µM and the GI50 (HCC-2998 colon) was 3.23 µM. It also gave a TGI (HCC-2998 colon) of 20.4 µM, a GI50 (HCT-116 colon) of 3.57 µM and a TGI (HCT-116 colon) of 33.3 µM. It also gave a GI50 (HCT-15 colon) of 3.46 µM, a TGI (HCT-15 colon) of 17.6 µM and a GI50 (HL-60(TB) leukemia) of 3.34 µM. The TGI (HL-60(TB) leukemia) was 30.4 µM, the GI50 (HOP-62 NSCLC) was 10.3 µM and the TGI (HOP-62 NSCLC) was 26.3 µM. The GI50 (HOP-92 NSCLC) was 4.68 µM, the TGI (HOP-92 NSCLC) was 20.3 µM and the GI50 (HS 578T breast) was 2.96 µM. It also gave a TGI (HS 578T breast) of 19.2 µM, a GI50 (HT29 colon) of 3.31 µM and a TGI (HT29 colon) of 17.8 µM. The GI50 (IGROV1 ovarian) was 11.4 µM, the TGI (IGROV1 ovarian) was 39.9 µM and the GI50 (K-562 leukemia) was 3.79 µM. For the same molecule, the TGI (K-562 leukemia) was greater than 100 µM, the GI50 (KM12 colon) was 2.13 µM and the TGI (KM12 colon) was 7.6 µM. The GI50 (LOX IMVI melanoma) was 3.78 µM, the TGI (LOX IMVI melanoma) was 16.2 µM and the GI50 (M14 melanoma) was 5.58 µM. It also gave a TGI (M14 melanoma) of 27.2 µM, a GI50 (MALME-3M melanoma) of 10.5 µM and a TGI (MALME-3M melanoma) of 23.2 µM. The GI50 (MDA-MB-231 breast) was 4.86 µM, the TGI (MDA-MB-231 breast) was 21.3 µM and the GI50 (MDA-MB-435) was 6.52 µM. The TGI (MDA-MB-435) was 25.8 µM, the GI50 (MOLT-4 leukemia) was 2.33 µM and the TGI (MOLT-4 leukemia) was 16.1 µM. For the same molecule, the GI50 (NCI-H226 lung) was 3.86 µM, the TGI (NCI-H226 lung) was 26.1 µM and the GI50 (NCI-H23 lung) was 0.533 µM. The TGI (NCI-H23 lung) was 8.49 µM, the GI50 (NCI-H460 lung) was 0.393 µM and the TGI (NCI-H460 lung) was 1.98 µM. It also gave a GI50 (NCI-H522 lung) of 4.19 µM, a TGI (NCI-H522 lung) of 22.4 µM and a GI50 (NCI/ADR-RES ovarian) of 7.98 µM. The TGI (NCI/ADR-RES ovarian) was 29.9 µM, the GI50 (OVCAR-3 ovarian) was 2.86 µM and the TGI (OVCAR-3 ovarian) was 17.1 µM. It also gave a GI50 (OVCAR-4 ovarian) of 2 µM, a TGI (OVCAR-4 ovarian) of 18.8 µM and a GI50 (OVCAR-5 ovarian) of 3.53 µM. The TGI (OVCAR-5 ovarian) was 19.4 µM, the GI50 (OVCAR-8 ovarian) was 12.3 µM and the TGI (OVCAR-8 ovarian) was 32.1 µM. It also gave a GI50 (PC-3 prostate) of 3.11 µM, a TGI (PC-3 prostate) of 18 µM and a GI50 (RPMI-8226 leukemia) of 2.6 µM. It also gave a TGI (RPMI-8226 leukemia) of 21.9 µM, a GI50 (RXF 393 renal) of 3.12 µM and a TGI (RXF 393 renal) of 16.6 µM. It also gave a GI50 (SF-268 CNS) of 8.27 µM, a TGI (SF-268 CNS) of 29.2 µM and a GI50 (SF-295 CNS) of 4.68 µM. The TGI (SF-295 CNS) was 23.2 µM, the GI50 (SF-539 CNS) was 2.67 µM and the TGI (SF-539 CNS) was 14.9 µM. It also gave a GI50 (SK-MEL-2 melanoma) of 18.2 µM, a TGI (SK-MEL-2 melanoma) greater than 100 µM and a GI50 (SK-MEL-28 melanoma) of 6.91 µM. The TGI (SK-MEL-28 melanoma) was 29.2 µM, the GI50 (SK-MEL-5 melanoma) was 11.3 µM and the TGI (SK-MEL-5 melanoma) was 35.3 µM. For the same molecule, the GI50 (SK-OV-3 ovarian) was 4.07 µM, the TGI (SK-OV-3 ovarian) was 29.7 µM and the GI50 (SN12C renal) was 11.8 µM. For the same molecule, the TGI (SN12C renal) was 31 µM, the GI50 (SNB-19 CNS) was 13.7 µM and the TGI (SNB-19 CNS) was 35.5 µM. It also gave a GI50 (SNB-75 CNS) of 0.95 µM, a TGI (SNB-75 CNS) of 14.4 µM and a GI50 (SR leukemia) of 2.2 µM. For the same molecule, the TGI (SR leukemia) was 17.6 µM, the GI50 (SW-620 colon) was 3.46 µM and the TGI (SW-620 colon) was 17 µM. The GI50 (TK-10 renal) was 5.8 µM, the TGI (TK-10 renal) was 25.8 µM and the GI50 (U251 CNS) was 11.5 µM. For the same molecule, the TGI (U251 CNS) was 26.1 µM, the GI50 (UACC-257 melanoma) was 3.96 µM and the TGI (UACC-257 melanoma) was 21.3 µM. The GI50 (UACC-62 melanoma) was 4.9 µM, the TGI (UACC-62 melanoma) was 27.9 µM and the GI50 (UO-31 renal) was 3.22 µM. For the same molecule, the TGI (UO-31 renal) was 21 µM.
